Active and inactive are the calls of the source.
Key:
[1] = biological target: T1, Short transient receptor potential channel 4 (Mus musculus, UniProt Q9QUQ5); assay: mouse TRPC4 channel inhibitors, dose response, cell-based, HEK293 TRPC4/mu-opioid, Fluo-4 calcium (AID 434942); format: functional;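 also: potency of inhibitors blocking the TRPC4 calcium response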
T1 sequence (Q9QUQ5 whole entry): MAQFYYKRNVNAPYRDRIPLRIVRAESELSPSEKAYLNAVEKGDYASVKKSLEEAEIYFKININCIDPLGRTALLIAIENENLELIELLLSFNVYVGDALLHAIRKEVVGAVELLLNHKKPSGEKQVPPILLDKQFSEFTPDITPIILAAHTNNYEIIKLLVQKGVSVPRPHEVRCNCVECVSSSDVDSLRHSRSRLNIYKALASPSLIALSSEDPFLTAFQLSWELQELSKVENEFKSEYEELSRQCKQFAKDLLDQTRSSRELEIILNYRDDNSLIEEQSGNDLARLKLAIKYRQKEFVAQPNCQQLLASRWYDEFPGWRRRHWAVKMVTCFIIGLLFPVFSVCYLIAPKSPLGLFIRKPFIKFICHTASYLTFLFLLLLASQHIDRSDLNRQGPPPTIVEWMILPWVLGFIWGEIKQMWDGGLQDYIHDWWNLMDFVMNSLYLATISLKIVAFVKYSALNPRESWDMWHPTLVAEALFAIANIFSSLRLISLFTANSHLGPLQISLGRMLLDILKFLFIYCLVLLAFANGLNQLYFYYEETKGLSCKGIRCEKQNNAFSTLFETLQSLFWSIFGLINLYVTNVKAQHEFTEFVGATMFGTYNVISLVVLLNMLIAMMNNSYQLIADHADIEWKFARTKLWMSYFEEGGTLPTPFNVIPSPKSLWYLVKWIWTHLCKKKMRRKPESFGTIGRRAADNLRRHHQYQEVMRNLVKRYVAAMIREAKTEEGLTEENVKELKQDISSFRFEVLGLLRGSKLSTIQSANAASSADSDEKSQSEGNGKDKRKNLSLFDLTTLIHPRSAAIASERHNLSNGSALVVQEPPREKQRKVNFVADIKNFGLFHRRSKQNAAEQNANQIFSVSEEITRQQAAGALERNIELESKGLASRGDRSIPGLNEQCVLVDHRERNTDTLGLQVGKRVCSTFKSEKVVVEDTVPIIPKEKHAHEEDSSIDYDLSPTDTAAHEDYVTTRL

[2] = biological target: T2, Heat shock factor protein 1 (Mus musculus, UniProt P38532); assay: inhibition of MG132-induced HSE-luciferase signal, confirmation, cell-based, NIH3T3, luminescence, dose retest (AID 2382); format: functional;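 also: NIH3T3 fibroblasts with HSF1-driven luciferase reporter stressed by proteasome inhibitor MG132; luminescence from HSF1-driven luciferase expression after 8 hours of MG132 stress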
T2 sequence (P38532 whole entry): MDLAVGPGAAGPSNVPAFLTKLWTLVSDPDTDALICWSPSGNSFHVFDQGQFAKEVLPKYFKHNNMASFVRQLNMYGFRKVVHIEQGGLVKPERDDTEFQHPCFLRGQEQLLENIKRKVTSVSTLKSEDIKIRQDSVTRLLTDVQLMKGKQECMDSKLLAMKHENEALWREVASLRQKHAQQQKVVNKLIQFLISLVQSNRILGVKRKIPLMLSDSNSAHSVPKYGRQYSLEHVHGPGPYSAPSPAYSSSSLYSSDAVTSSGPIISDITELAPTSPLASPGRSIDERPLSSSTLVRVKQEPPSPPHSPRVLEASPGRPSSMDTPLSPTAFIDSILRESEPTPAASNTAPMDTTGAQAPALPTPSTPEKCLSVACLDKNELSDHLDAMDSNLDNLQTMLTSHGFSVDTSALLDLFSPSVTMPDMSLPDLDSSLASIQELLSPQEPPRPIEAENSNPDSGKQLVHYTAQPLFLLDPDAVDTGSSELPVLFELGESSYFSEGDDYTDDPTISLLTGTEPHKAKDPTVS

[3] = biological target: Peroxisome proliferator-activated receptor gamma/Nuclear receptor coactivator 2 (Homo sapiens, UniProt P37231); assay: (§1) TR-FRET dose response biochemical High Throughput Screening assay for agonists of the steroid receptor coactivator 2 (SRC-2) recruitment by the peroxisome proliferator-activated receptor gamma (PPAR gamma): non-selective agonists. [Related pubchem assays: 1297, 1032 ]; format: functional
Peroxisome proliferator-activated receptor gamma/Nuclear receptor coactivator 2, sequence (P37231 whole entry): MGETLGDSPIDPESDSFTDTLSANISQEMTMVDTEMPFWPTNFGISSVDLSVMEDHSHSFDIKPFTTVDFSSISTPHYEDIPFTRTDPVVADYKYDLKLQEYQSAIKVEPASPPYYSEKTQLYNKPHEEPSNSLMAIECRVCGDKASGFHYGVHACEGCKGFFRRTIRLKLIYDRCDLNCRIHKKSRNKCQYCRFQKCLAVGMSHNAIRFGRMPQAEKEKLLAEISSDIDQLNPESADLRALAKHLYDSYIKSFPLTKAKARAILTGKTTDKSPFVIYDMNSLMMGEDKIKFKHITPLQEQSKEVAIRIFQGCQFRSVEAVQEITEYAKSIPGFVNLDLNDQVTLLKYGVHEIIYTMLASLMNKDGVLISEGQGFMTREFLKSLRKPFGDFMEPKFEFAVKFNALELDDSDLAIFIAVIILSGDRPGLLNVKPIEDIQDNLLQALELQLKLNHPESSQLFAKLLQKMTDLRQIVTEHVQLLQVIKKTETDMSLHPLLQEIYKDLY
Peroxisome proliferator-activated receptor gamma/Nuclear receptor coactivator 2, sequence (Q15596 whole entry, further chain): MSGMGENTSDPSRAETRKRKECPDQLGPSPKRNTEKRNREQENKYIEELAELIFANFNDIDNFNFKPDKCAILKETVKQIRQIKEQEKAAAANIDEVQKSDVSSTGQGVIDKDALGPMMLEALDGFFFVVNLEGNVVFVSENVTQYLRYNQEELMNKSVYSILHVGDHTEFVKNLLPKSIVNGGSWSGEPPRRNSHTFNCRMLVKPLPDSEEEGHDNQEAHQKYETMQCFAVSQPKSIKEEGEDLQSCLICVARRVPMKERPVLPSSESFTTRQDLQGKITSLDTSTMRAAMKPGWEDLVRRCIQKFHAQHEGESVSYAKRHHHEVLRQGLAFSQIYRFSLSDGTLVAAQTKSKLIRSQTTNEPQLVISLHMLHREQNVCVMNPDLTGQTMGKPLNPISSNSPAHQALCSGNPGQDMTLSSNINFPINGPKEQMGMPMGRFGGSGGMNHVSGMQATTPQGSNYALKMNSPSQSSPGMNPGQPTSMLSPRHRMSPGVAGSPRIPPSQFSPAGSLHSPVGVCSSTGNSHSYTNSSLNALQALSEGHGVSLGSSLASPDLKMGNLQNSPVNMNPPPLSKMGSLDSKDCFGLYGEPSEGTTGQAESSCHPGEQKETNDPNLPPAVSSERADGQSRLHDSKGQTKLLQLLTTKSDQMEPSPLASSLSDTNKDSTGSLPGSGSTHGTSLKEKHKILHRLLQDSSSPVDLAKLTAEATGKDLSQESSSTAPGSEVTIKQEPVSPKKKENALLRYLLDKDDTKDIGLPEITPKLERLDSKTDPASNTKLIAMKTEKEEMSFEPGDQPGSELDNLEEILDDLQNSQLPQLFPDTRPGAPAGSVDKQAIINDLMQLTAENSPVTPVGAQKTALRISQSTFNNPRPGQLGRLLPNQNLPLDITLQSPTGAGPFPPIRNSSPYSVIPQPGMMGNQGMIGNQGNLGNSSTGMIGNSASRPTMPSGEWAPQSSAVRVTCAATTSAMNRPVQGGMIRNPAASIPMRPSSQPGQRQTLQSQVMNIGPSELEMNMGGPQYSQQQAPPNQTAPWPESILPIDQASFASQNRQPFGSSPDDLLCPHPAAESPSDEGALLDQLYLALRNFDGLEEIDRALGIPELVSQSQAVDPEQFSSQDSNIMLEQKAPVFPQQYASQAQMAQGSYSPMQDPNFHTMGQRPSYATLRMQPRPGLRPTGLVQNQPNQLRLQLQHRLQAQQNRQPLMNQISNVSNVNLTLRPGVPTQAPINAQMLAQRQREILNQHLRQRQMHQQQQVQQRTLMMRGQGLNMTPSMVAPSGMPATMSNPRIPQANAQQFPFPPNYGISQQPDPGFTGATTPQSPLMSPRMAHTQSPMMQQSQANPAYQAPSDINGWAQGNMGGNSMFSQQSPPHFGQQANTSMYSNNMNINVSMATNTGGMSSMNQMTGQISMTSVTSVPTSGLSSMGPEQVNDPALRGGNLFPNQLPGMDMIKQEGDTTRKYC

[4] = biological target: Peroxisome proliferator-activated receptor gamma/Nuclear receptor coactivator 3 (Homo sapiens, UniProt P37231); assay: as §1, with “3 (SRC-3)” for “2 (SRC-2)”, “1301 (Confirmation screen.), 1048 (Primary screen.)]” for “1297, 1032 ]”; format: functional
Peroxisome proliferator-activated receptor gamma/Nuclear receptor coactivator 3, sequence (P37231 whole entry): as the sequence (P37231 whole entry) above
Peroxisome proliferator-activated receptor gamma/Nuclear receptor coactivator 3, sequence (Q9Y6Q9 whole entry, further chain): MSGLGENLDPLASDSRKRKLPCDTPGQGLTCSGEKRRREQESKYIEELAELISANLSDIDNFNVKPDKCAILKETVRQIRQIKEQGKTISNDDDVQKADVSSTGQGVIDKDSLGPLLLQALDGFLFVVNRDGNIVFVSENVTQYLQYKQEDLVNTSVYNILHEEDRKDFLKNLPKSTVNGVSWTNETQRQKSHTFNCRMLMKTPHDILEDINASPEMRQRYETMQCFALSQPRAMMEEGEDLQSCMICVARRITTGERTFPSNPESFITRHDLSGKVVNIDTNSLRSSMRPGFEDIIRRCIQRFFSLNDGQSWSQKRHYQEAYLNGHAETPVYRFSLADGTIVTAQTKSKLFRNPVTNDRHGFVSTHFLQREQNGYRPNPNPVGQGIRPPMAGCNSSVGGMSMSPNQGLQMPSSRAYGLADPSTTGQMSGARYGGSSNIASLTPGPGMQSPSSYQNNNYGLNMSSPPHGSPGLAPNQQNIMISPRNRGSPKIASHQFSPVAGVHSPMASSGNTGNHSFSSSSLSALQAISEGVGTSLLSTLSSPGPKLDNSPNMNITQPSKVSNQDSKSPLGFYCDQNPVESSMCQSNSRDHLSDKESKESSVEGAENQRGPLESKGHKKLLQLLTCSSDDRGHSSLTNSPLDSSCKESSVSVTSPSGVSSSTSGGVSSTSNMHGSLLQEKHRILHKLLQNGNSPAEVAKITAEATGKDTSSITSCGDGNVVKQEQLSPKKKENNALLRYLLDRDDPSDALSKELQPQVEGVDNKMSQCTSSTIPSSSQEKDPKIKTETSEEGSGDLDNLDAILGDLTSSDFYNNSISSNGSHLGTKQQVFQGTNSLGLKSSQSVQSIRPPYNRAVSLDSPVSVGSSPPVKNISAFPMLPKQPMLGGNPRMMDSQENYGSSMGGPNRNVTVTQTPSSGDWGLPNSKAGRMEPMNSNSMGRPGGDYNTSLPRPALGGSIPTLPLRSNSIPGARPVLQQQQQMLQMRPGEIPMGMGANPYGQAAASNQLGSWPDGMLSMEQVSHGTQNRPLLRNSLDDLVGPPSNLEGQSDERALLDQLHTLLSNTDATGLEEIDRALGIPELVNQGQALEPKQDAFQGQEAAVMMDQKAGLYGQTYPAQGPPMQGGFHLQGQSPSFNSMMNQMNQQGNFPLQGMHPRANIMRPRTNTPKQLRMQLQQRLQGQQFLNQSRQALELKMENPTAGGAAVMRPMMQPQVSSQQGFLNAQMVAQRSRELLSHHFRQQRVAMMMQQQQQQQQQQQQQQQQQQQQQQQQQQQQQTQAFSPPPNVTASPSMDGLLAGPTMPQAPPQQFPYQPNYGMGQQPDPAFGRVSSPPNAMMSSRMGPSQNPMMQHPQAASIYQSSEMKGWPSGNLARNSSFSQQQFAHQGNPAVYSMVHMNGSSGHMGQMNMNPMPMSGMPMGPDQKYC

[5] = cytotoxicity in HEK-293T cells, dose response, cytotoxicity control for BCR NF-kB inhibitor project, luminescence, B-cell screen hits (AID 489021); format: functional, cell-based;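 also: HEK-293T cells carrying an NF-kB luciferase reporter; cells exposed to compound for about 14 hours before viability readout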
[6] = biological target: Peroxisome proliferator-activated receptor gamma/Nuclear receptor coactivator 1 (Homo sapiens, UniProt P37231); assay: as §1, with “1 (SRC-1)” for “2 (SRC-2)”, “assays (depositor defined):AID1300, AID1808, AID504735, AID631]” for “assays: 1297, 1032 ]”; format: protein assay
[7] = system: HEK293; assay: inhibitors of LMP1-driven NF-kB reporter, dose response, cell-based, HEK293, luciferase, cherry-pick (AID 588343); format: functional; conditions: Homo sapiens
[8] = biological target: Bcl-2-like protein 10 (Homo sapiens, UniProt Q9HD36); assay: displacers of TR3 peptide from Bcl-B, primary screen, selectivity assay for Bfl-1 inhibitor project, biochemical, fluorescence polarization, FITC-TR3 peptide (AID 748);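 also: fluorescence polarization from a fluorescein-labelled TR3 peptide binding purified Bcl-B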
Bcl-2-like protein 10, sequence (Q9HD36 whole entry): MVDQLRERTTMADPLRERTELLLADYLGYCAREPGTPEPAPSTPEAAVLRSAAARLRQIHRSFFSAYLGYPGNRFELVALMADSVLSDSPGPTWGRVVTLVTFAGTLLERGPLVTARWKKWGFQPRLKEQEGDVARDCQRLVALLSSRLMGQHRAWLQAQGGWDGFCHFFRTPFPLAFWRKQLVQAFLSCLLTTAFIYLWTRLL

Cc1ccc(OCc2cc(C(=O)N(C)CCc3nc4ccccc4[nH]3)no2)cc1C
EC50 [1]: 1.06 µM (active)
EC50 [2]: > 195 µM (not active)

O=C(Cc1cccc2ccccc12)Nc1ccc(-c2cc3ccccc3oc2=O)cc1
EC50 [3]: 22 µM (not active)
EC50 [4]: > 79.4 µM (not active)
IC50 [5]: > 80 µM (inactive)
EC50 [6]: 22.7 µM (inactive)
AC50 [7]: 587 nM (active)

Cc1ccc(S(=O)(=O)Nc2cccc(C(=O)NCC(c3ccco3)N3CCCCC3)c2)cc1F (centres undefined)
EC50 [1]: 0.267 µM (active)

O=C1c2ccccc2C(=O)N1CC#CCN1CCN(C2CCCCC2)CC1
IC50 [8]: > 100 µM (inactive)
